Literature values, collected in patent publication US11844836B2, “Topical pharmaceutical composition based on semifluorinated alkanes” (DERMALIQ THERAPEUTICS, INC., priority 2011, dated 2023).

Conditions: testosterone as model drug; pig skin; Hardung, Doctoral Thesis 2008, p. 103

CCCCCCCCC(F)(F)C(F)(F)C(F)(F)C(F)(F)C(F)(F)C(F)(F)F [F6H8]
penetration-enhancing effect of the SFA carrier: does not affect an improved penetration into the skin
